Consider ten molecules from publication PMC9017309, “Triazolopyrimidines Target Aerobic Respiration in Mycobacterium tuberculosis” (Antimicrobial Agents and Chemotherapy, 2022).

For orientation: IC50 means the concentration at which inhibition is half-maximal.

Values after ≈ are worked out from the molar mass of the structure shown.

In one data set the test system is M. tuberculosis. In kind it is cell-based, Mycobacterium tuberculosis. To be noted: normalized to DMSO control.
The nature of a further data set: in vitro. The note with it: human.
Another data set concerns human HepG2 cells. The note with it: read-out: IC50 HepG2, Glucose; concentration reducing cell number by 50%, 3 days exposure, glucose as carbon source; cited from earlier work.
For data set [1], the system named is M. tuberculosis in human THP-1 macrophages. As to the kind of experiment: Activity against intracellular M. tuberculosis in THP-1 macrophages. It counts as cell-based. The note with it: Mycobacterium tuberculosis, THP-1, 72 h, unit inferred, μM.
The test system of data set [2] is M. tuberculosis H37Rv-LP (ATCC 25618). As to the kind of experiment: MIC in liquid medium, parental strain. In kind it is cell-based. The note with it: Mycobacterium tuberculosis, 120 h, n in brackets.
Data set [3] has the same test system. The data set is described as follows: microbe, parasite or virus in culture. To be noted: Mycobacterium tuberculosis, 504 h, 24-well agar plates, 3 weeks, read-out: MIC on solid medium, H37Rv-LP. In kind it is cell-based.
Data set [4] relates to M. tuberculosis H37Rv ATCC 27294. The data set is described as follows: microbe, parasite or virus in culture. To be noted: Mycobacterium tuberculosis, 120 h; 5 days; read-out: MIC, H37Rv ATCC 27294 Parental. It counts as cell-based.

Turning to `CCc1nc2ccc(Cl)cn2c1C(=O)NCc1ccc(N2CCC(c3ccc(OC(F)(F)F)cc3)CC2)cc1` [Molecule Q203, Q203], the “Effect on intracellular ATP levels” value in the data set with M. tuberculosis was “depletion of ATP levels at concentrations lower than the MIC”.

Consider `COc1ccc(CCNc2cc(-c3ccccc3)nc3ncnn23)cc1` [TPN-0006218], for which the IC50 is 65 µM in “in vitro”, over 100 µM in the data set with human HepG2 cells and 0.23 ± 0.08 µM in data set [1]. Moreover, the MIC in data set [2] was determined as 2.6 ± 1.3 µM (≈ 0.898 µg/mL).

Consider `COc1ccc(CCNc2cc(-c3ccccn3)nc3ncnn23)cc1` [TPN-0006239], for which the IC50 in the data set “in vitro” is 73 µM; with human HepG2 cells it was over 100 µM. Moreover, the MIC stood at 1.6 µM (≈ 0.554 µg/mL) in data set [3], 9.5 ± 3.5 µM (≈ 3.29 µg/mL) in data set [4] and 1.1 ± 0.5 µM (≈ 0.381 µg/mL) in data set [2].

For `FC(F)(F)c1ccc(CCNc2cc(-c3ccccc3)nc3ncnn23)cc1` [TPN-0006243], the half-maximal inhibitory concentration (IC50) in the data set “in vitro” and with human HepG2 cells was over 100 µM each time. For the same molecule, the MIC stood at 2.2 ± 0.9 µM (≈ 0.843 µg/mL) in data set [4] and 3.7 ± 2.9 µM (≈ 1.42 µg/mL) in data set [2].

Turning to `Cc1ccc(CCNc2cc(-c3ccccc3)nc3ncnn23)cc1` [TPN-0006245], the IC50 in “in vitro” is 39 µM; with human HepG2 cells it was 58 µM. Moreover, the MIC in data set [2] worked out at 2 ± 1.1 µM (≈ 0.659 µg/mL).

As to `FC(F)(F)c1ccc(CCNc2cc(-c3ccccn3)nc3ncnn23)cc1` [TPN-0006267], the IC50 in “in vitro” was over 100 µM; with human HepG2 cells it was over 100 µM; in data set [1], 0.21 ± 0.11 µM. Also, the figures for the MIC in data set [3] and in data set [2] were 1.6 µM (≈ 0.615 µg/mL) and 1.4 ± 1.4 µM (≈ 0.538 µg/mL), respectively.

With `Clc1ccc(CCNc2cc(-c3ccccn3)nc3ncnn23)cc1` [TPN-0006273], the values for the IC50 (in “in vitro”; with human HepG2 cells; in data set [1]) were 76 µM, 100 µM and 0.19 ± 0.13 µM, respectively.

In the case of `CCc1ccc(CCNc2cc(-c3ccccn3)nc3ncnn23)cc1` [TPN-0006288], the IC50 was 23 µM in the data set “in vitro”, 44 µM in the data set on human HepG2 cells and 0.076 ± 0.032 µM in data set [1].

For the molecule `CCc1ccc(CCNc2cc(-c3ccccc3)nc3ncnn23)cc1` [TPN-0006290], the IC50 was 33 µM in “in vitro”, 49 µM with human HepG2 cells and 0.18 ± 0.09 µM in data set [1].

In the case of `NC[C@H]1O[C@H](O[C@H]2[C@H](O)[C@@H](O[C@H]3O[C@H](CO)[C@@H](O)[C@H](N)[C@H]3O)[C@H](N)C[C@@H]2N)[C@H](O)[C@@H](O)[C@@H]1O` [kanamycin], the “Effect on intracellular ATP levels” value in the data set with M. tuberculosis is “Depletion of ATP was not seen”.
